Read-outs that look alike come from different tables or passages of the source.
Tests used:
[1] = molecular target: T1, TAAR1 (Homo sapiens, UniProt Q96RJ0); assay: BRET-based cellular cAMP (EPAC biosensor) assay of TAAR1 agonism in transfected HEK-293 cells; conditions: for Emax: HEK293, read-out: Emax: maximum observed activation of TAAR1 relative to that observed for 1 μM of β-PEA
T1 sequence (Q96RJ0 1-339): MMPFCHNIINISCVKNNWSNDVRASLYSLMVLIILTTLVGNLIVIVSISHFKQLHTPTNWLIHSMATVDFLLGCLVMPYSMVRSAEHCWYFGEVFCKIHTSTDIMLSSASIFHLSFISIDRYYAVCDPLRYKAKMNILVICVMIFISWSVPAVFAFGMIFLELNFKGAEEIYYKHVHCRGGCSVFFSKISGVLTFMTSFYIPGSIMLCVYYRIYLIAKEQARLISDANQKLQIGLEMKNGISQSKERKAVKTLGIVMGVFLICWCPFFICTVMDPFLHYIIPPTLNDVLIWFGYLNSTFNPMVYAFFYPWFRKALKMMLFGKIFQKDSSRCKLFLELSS
Description: The Bioluminescence Resonance Energy Transfer approach (BRET) has been used for functional activity experiments. HEK-293 cells were transiently transfected with cDNA for TAARs and cAMP BRET biosensor (EPAC) and then plated in a 96-well plate, as described [23]. All compounds were tested at the initial concentration of 10 µM. […] A natural agonist of TAAR1 β-phenylethylamine (β-PEA) was used as a positive control.

[2] = TAAR1 activation, BRET assay, HEK-293, mean from 3 assays
[3] = relative to 1 μM β-PEA, mean from 3 BRET assays, errors ±5–10%

Row | Molecule | melting point [°C] | EC50 [1] [nM] | Emax [1] [%] | EC50 [1, 2] | Emax: maximum observed activation of TAAR1 relative to that observed for 1 μM of β-PEA [1, 3] | Emax: maximum observed activation of TAAR1 relative to that observed for 1 μM of β-PEA [1]
1 | Cc1cc(-c2nnc(CCN)[nH]2)ccc1Br.Cl [Compound 12, 2-(5-(4-Bromo-3-methylphenyl)-4H-1,2,4-triazol-3-yl)ethan-1-amine Hydrochloride] | 251 to 252 | 812 | 87 |  |  | 
2 | Cl.NCCc1nnc(-c2ccc(-c3ccc(F)cc3F)cc2)[nH]1 [Compound 61, 2-(5-(2′,4′-Difluoro-(1,1′-biphenyl)-4-yl)-4H-1,2,4-triazol-3-yl)ethan-1-amine Hydrochloride] | 251 to 253 | 18 | 93 |  |  | 
3 | Cl.NCCc1nnc(-c2ccc([N+](=O)[O-])cc2)[nH]1 [Compound 14, 2-(5-(4-Nitrophenyl)-4H-1,2,4-triazol-3-yl)ethan-1-amine Hydrochloride] | 239 to 240 |  |  | inactive | inactive | 
4 | CCOc1cc(-c2nnc(CCN)[nH]2)cc(OCC)c1OCC.Cl [Compound 32, 2-(5-(3,4,5-Triethoxyphenyl)-4H-1,2,4-triazol-3-yl)ethan-1-amine Hydrochloride] | 253 to 255 |  |  | inactive | inactive | 
5 | CCOc1ccc(-c2nnc(CCN)[nH]2)cc1.Cl [Compound 25, 2-(5-(4-Ethoxyphenyl)-4H-1,2,4-triazol-3-yl)ethan-1-amine Hydrochloride] | 235 to 236 | 550 | 139 |  |  | 
6 | COc1ccc(-c2nnc(CCN)[nH]2)cc1OC.Cl [Compound 11, 2-(5-(3,4-Dimethoxyphenyl)-4H-1,2,4-triazol-3-yl)ethan-1-amine Hydrochloride] | 209 to 210 |  |  | inactive | inactive | 
7 | Cl.NCCc1nnc(-c2ccccc2[N+](=O)[O-])[nH]1 [Compound 27, 2-(5-(2-Nitrophenyl)-4H-1,2,4-triazol-3-yl)ethan-1-amine Hydrochloride] |  |  |  | > 1000 nM | 69 | 
8 | Cc1ccc(Oc2ccc(-c3nnc(CCN)[nH]3)cc2)cc1.Cl [Compound 54, 2-(5-(4-[4-Methylphenoxy]phenyl)-4H-1,2,4-triazol-3-yl)ethan-1-amine Hydrochloride] | 234 to 236 | 150 | 94 |  |  | 
9 | Cl.NCCc1nnc(-c2ccc(Cl)cc2)[nH]1 [Compound 28, 2-(5-(4-Chlorophenyl)-4H-1,2,4-triazol-3-yl)ethan-1-amine Hydrochloride] | 239 to 241 | 522 | 107 |  |  | 
10 | Cc1cc(C)cc(-c2nnc(CCN)[nH]2)c1.Cl [Compound 31, 2-(5-(3,5-Dimethylphenyl)-4H-1,2,4-triazol-3-yl)ethan-1-amine Hydrochloride] | 232 to 234 | 813 | 117 |  |  | 
11 | CN(C)c1ccc(-c2nnc(CCN)[nH]2)cc1 [Compound 30, 4-(5-(2-Aminoethyl)-4H-1,2,4-triazol-3-yl)-N,N-dimethylaniline] | 244 to 246 |  |  | 730 nM |  | 122
12 | Cl.NCCc1nnc(-c2cnccn2)[nH]1 [Compound 38, 2-(5-(Pyrazin-2-yl)-4H-1,2,4-triazol-3-yl)ethan-1-amine Hydrochloride] | 184 to 186 |  |  | inactive | inactive | 
13 | Cl.NCCc1nnc(-c2ccc(OCc3ccccc3F)cc2)[nH]1 [Compound 43, 2-(5-(4-[(2-Fluorobenzyl)oxy]phenyl)-4H-1,2,4-triazol-3-yl)ethan-1-amine Hydrochloride] | 232 to 235 | 45 | 114 |  |  | 
14 | Cc1ccc(Oc2cccc(-c3nnc(CCN)[nH]3)c2)c(C)c1.Cl.Cl [Compound 52, 2-(5-(3-[2,4-Dimethylphenoxy]phenyl)-4H-1,2,4-triazol-3-yl)ethan-1-amine Hydrochloride Hydrochloride] | 308 to 310 | > 1000 | 79 |  |  | 
15 | Cl.NCCc1nnc(-c2cc(Cl)cc(Cl)c2)[nH]1 [Compound 21, 2-(5-(3,5-Dichlorophenyl)-4H-1,2,4-triazol-3-yl)ethan-1-amine Hydrochloride] | 222 to 224 | 23 | 112 |  |  | 
16 | COc1ccc(-c2nnc(CCN)[nH]2)cc1.Cl [Compound 6, 2-(5-(4-Methoxyphenyl)-4H-1,2,4-triazol-3-yl)ethan-1-amine Hydrochloride] | 248 to 250 | > 1000 | 56 |  |  | 
17 | Cc1cc(-c2nnc(CCN)[nH]2)ccc1OCc1ccccc1F.Cl [Compound 46, 2-(5-(4-[(2-Fluorobenzyl)oxy]-3-methylphenyl)-4H-1,2,4-triazol-3-yl)ethan-1-amine Hydrochloride] | 234 to 236 | 398 | 82 |  |  | 

Row | Molecule | melting point [°C] | EC50 [1] [nM] | Emax [1] [%] | EC50 [1, 2] | Emax: maximum observed activation of TAAR1 relative to that observed for 1 μM of β-PEA [1, 3] | Emax: maximum observed activation of TAAR1 relative to that observed for 1 μM of β-PEA [1]
18 | Cl.NCCc1nnc(-c2ccccc2OC(F)(F)F)[nH]1 [Compound 39, 2-(5-(2-[Trifluoromethoxy]phenyl)-4H-1,2,4-triazol-3-yl)ethan-1-amine Hydrochloride] | 208 to 211 |  |  | inactive | inactive | 
19 | 2-(5-(4-Ethylphenyl)-4H-1,2,4-triazol-3-yl)ethan-1-amine Hydrochloride [Compound 26] |  |  |  | > 1000 nM | 71 | 
20 | Cl.NCCc1nnc(-c2ccc(F)cc2)[nH]1 [Compound 34, 2-(5-(4-Fluorophenyl)-4H-1,2,4-triazol-3-yl)ethan-1-amine Hydrochloride] | 253 to 256 | > 1000 | 169 |  |  | 
21 | COc1cccc(-c2nnc(CCN)[nH]2)c1.Cl [Compound 7, 2-(5-(3-Methoxyphenyl)-4H-1,2,4-triazol-3-yl)ethan-1-amine Hydrochloride] | 235 to 236 | 910 | 132 |  |  | 
22 | Cl.NCCc1nnc(-c2cccc(I)c2)[nH]1 [Compound 41, 2-(5-(3-Iodophenyl)-4H-1,2,4-triazol-3-yl)ethan-1-amine Hydrochloride] | 224 to 225 | 890 | 80 |  |  | 
23 | Cc1cc(-c2nnc(CCN)[nH]2)ccc1O.Cl [Compound 57, 4-(5-(2-Aminoethyl)-4H-1,2,4-triazol-3-yl)-2-methylphenol Hydrochloride] | 158 to 160 | > 1000 | 90 |  |  | 
24 | Cl.NCCc1nnc(-c2cccc(-c3ccc(F)cc3F)c2)[nH]1 [Compound 66, 2-(5-(4′-(2′,4′-Difluoro-(1,1′-biphenyl)-3-yl)-4H-1,2,4-triazol-3-yl)ethan-1-amine Hydrochloride] |  |  |  | 300 nM |  | 
25 | Cl.NCCc1nnc(-c2ccc(OCc3cccc(F)c3)cc2)[nH]1 [Compound 44, 2-(5-(4-[(3-Fluorobenzyl)oxy]phenyl)-4H-1,2,4-triazol-3-yl)ethan-1-amine Hydrochloride] | 214 to 216 | 30 | 112 |  |  | 
26 | Cl.NCCc1nnc(-c2ccc(-c3cc(F)cc(F)c3)cc2)[nH]1 [Compound 65, 2-(5-(3′,5′-Difluoro-(1,1′-biphenyl)-4-yl)-4H-1,2,4-triazol-3-yl)ethan-1-amine Hydrochloride] | 260 to 262 | 13 | 105 |  |  | 
27 | Cl.NCCc1nnc(-c2ccc(-c3cccc(C(F)(F)F)c3)cc2)[nH]1 [Compound 63, 2-(5-(3′-Trifluoromethyl-(1,1′-biphenyl)-4-yl)-4H-1,2,4-triazol-3-yl)ethan-1-amine Hydrochloride] | 210 to 212 | 250 | 76 |  |  | 
28 | Cl.NCCc1nnc(-c2cccc(-c3ccc(F)cc3F)c2)[nH]1 [Compound 66] |  |  |  |  | 91 | 
29 | Cl.NCCc1nnc(-c2cccc(C(F)(F)F)c2)[nH]1 [Compound 18] |  |  |  | inactive | inactive | 
30 | 2-(5-(3-Methyl-4-[([4-(trifluoromethyl)benzyl]oxy)phenyl]-4H-1,2,4-triazol-3-yl)) Hydrochloride [Compound 49] |  |  |  | inactive | inactive | 
31 | 2-(5-(2-[3,4-Difluorophenoxy]phenyl)-4H-1,2,4-triazol-3-yl) Hydrochloride [Compound 50] |  |  |  | inactive | inactive | 
32 | Cl.NCCc1nnc(-c2cccc(C(F)(F)F)c2)[nH]1 [Compound 8, 2-(5-(3-[Trifluoromethyl]phenyl)-4H-1,2,4-triazol-3-yl)ethan-1-amine Hydrochloride] |  |  |  | 210 nM | 108 | 
33 | CN(C)c1cccc(-c2nnc(CCN)[nH]2)c1.Cl [Compound 24, 3-(5-(2-Aminoethyl)-4H-1,2,4-triazol-3-yl)-N,N-dimethylaniline Hydrochloride] |  |  |  | inactive | inactive | 
